Results from article PMC4642645, “Oxacillin sensitization of methicillin-resistant Staphylococcus aureus and methicillin-resistant Staphylococcus pseudintermedius by antisense peptide nucleic acids in vitro” (BMC Microbiology, 2015).

Legend:
[1] = tested on: MRSP isolates; details: cited from earlier work
Excerpt: In the MRSP strain HH-1, PNAs were effective at much lower concentrations compared to NCTC 13142. This is presumably due to differences in cell wall structures, as passage across the cell wall is considered to be the main limiting factor for PNA efficacy. Another indication of cell wall differences is that scrambled PNAs affected cell viability of HH-1 without affecting transcript levels of mecA or ftsZ (i.e. non-specific toxic effect).

[2] = tested on: NCTC 13142; assay: Oxacillin sensitization viable count assay (CFU on oxacillin plates); type: cell-based, Staphylococcus aureus (MRSA); details: 6 h, plated on 16 μg/ml oxacillin, n = 3
Description: (§1) The viable count assay is more sensitive than the broth assay and was used to assess the effects of PNAs that performed well in the initial screen described above. In the viable count assay, 5 × 10^5 CFU/ml per well of culture was treated either with 2.5, 5 and 7.5 μM of PNA for NCTC 13142, or 1, 2.5 and 5 μM of PNA for HH-1 in MHB at 35 °C for 6 h. […] Agar plates were incubated at 35 °C for 24 h, and dilutions resulting in 30–300 colonies per plate were used to determine the viable count. Experimental repeats were carried out on separate days, and reductions in CFU of treated cultures were normalized to CFU of the untreated control culture on the day. Statistical analysis of CFU reductions was carried out with the paired Student’s t-Test in Microsoft Excel.

[3] = tested on: HH-1; assay: as above; type: cell-based, Staphylococcus pseudintermedius (MRSP)
Description: as §1

[4] = tested on: ftsZ mRNA; assay: ftsZ mRNA level by RT-qPCR; type: cell-based, Staphylococcus aureus (MRSA) NCTC 13142; details: NCTC 13142, 7.5 μM PNA, no oxacillin, compared to untreated or scrZ-treated cells, n = 3
Description: (§2) Growth of cultures in a 96 well plate was monitored by reading the optical density at 550 nm every 5 min, after shaking for 5 s in a microplate reader (Spectramax 340PC, […]). Cultures were harvested when the untreated control culture increased in OD550 ≈ 0.1. Cultures with the same PNA treatment but in different wells across the 96 well plate were pooled for total RNA extraction and DNase I treatment (Ribopure™ Bacteria kit, Life Technologies). RNA was checked for gDNA contamination by qPCR using gyrA primers (Additional file 1: Table S1) and SsoFast™ EvaGreen® Supermix (Bio-Rad) before cDNA synthesis using 50 ng RNA and iScript™ Reverse Transcription Supermix (Bio-Rad). Samples of cDNA were diluted 10-fold and 4 μl used in each qPCR reaction. […]
(§3) Primer pairs for qPCR were designed by Primer3 with a Tm of 60 °C and product sizes of 100–200 bp (Additional file 1: Table S1). […] Primer efficiencies were determined using 10-fold serial dilutions of cDNA (10 pg-1 μg). […]
(§4) Total RNA and cDNA were prepared as described above. Raw Cq values were analysed in qbase + (Biogazelle, Belgium) with user-defined primer efficiencies (Additional file 1: Table S1) and expression stabilities (M value) of each candidate reference gene fabD, gyrA, proC, pta, pyk, rho, sodA, and tpiA were calculated as the average pairwise variation for each gene with all other tested genes. […]

[5] = tested on: ftsZ mRNA; assay: ftsZ mRNA level by RT-qPCR; type: cell-based, Staphylococcus pseudintermedius (MRSP) HH-1; details: HH-1, 2.5 μM PNA, no oxacillin, compared to untreated or scrZ-treated cells, n = 3
Description: as §2, §3, §4

[6] = tested on: NCTC 13142; assay: Growth inhibition assay (OD550 growth curves); type: cell-based, Staphylococcus aureus (MRSA); details: NCTC 13142, MHB with 6 μg/ml oxacillin, PNA 0–7.5 μM, 35 °C, 6 h, OD550, n = 3
Description: (§5) Anti-ftsZ PNAs were tested for effects on growth. Overnight MHB cultures were adjusted to 5 × 10^5 CFU/ml per well of a 96 well plate in MHB supplemented with 6 μg/ml oxacillin as described above. Anti-ftsZ PNA was added to final concentrations of 0, 1, 2.5, 5, 7.5 μM and incubated in a microplate reader (Spectramax 340PC, Molecular Devices) at 35 °C for 6 h. The optical density of the cultures was monitored at 550 nm with readings every 5 min after shaking for 5 s.

[7] = tested on: HH-1; assay: Growth inhibition assay (OD550 growth curves); type: cell-based, Staphylococcus pseudintermedius (MRSP); details: HH-1, MHB with 6 μg/ml oxacillin, PNA 0–7.5 μM, 35 °C, 6 h, OD550, n = 3
Description: as §5

[8] = tested on: NCTC 13142; assay: Light microscopy of Gram stained cells (cell morphology); type: cell-based, Staphylococcus aureus (MRSA); details: NCTC 13142, 7.5 μM PNA, 6 h at 35 °C, 1000 × magnification
Description: (§6) Bacterial cultures were treated with anti-ftsZ PNA Z46 in broth as described in the viable count assay. After 6 h at 35 °C, cultures were pelleted, washed once in PBS, and re-suspended in 1/10 of original volume of the culture in PBS. Ten microliter aliquots were heat-fixed, Gram stained, and viewed under a light microscope (Olympus BX60) at 1000 × magnification. Images were captured using the Image-Pro Plus 5.0 (MediaCybernetics), and counting of purple and pink cells were carried out using ImageJ 1.44o (National Institute of Health, USA).

[9] = tested on: HH-1; assay: as above; type: cell-based, Staphylococcus pseudintermedius (MRSP); details: HH-1, 2.5 μM PNA, 6 h at 35 °C, 1000 × magnification
Description: as §6

Row | Substance | MIC against MRSP isolates [1] | CFU reduction of NCTC 13142 ([2]; 7.5 μM PNA, ratio to untreated control, mean) | Sensitization to oxacillin (CFU reduction), result in words ([2]; NCTC 13142, PNA 2.5, 5, 7.5 μM (Z46: 7.5 μM)) | MRSP cells killed by oxacillin ([3]; 2.5 μM PNA, 6 h at 35 °C, plated on MH agar with 16 μg/ml oxacillin, relative to untreated control) | Sensitization to oxacillin (CFU reduction), result in words ([3]; HH-1, A73 and scrA 1, 2.5, 5 μM, Z46 0.5, 1, 2.5 μM, 6 h, plated on 16 μg/ml oxacillin, n = 3) | ftsZ mRNA levels, result in words [4] | ftsZ mRNA levels, result in words [5] | Concentration that inhibited growth [6] | Concentration that inhibited growth [7] | Cell morphology after Gram stain [8] | Cell morphology after Gram stain [9]
1 | KFFKFFKFFK [(KFF)3K peptide, cell-penetrating peptide (CPP) used as PNA carrier] | 2 to 8 µM | – | – | – | – | – | – | – | – | – | –
2 | KFFKFFKFFK-eg1-TAACATTTAA-NH2 [Z46, anti-ftsZ PNA (−4 to +6) conjugated to the (KFF)3K peptide] | – | 87% | significantly sensitized | 95% | significantly sensitized | reduced | reduced | 7.5 µM | 2.5 µM | swollen | swollen
